{
  "source": "paper PMC7255801",
  "about": "“Disease-associated mutations in the human TRPM3 render the channel overactive via two distinct mechanisms” (eLife, 2020)",
  "molecular_target": "T1, wild-type hTRPM3α2 (Homo sapiens, UniProt Q9HCF6)",
  "T1 construct": "host or cells: HEK293",
  "T1 sequence (Q9HCF6 1-1709 isoform Q9HCF6-5)": "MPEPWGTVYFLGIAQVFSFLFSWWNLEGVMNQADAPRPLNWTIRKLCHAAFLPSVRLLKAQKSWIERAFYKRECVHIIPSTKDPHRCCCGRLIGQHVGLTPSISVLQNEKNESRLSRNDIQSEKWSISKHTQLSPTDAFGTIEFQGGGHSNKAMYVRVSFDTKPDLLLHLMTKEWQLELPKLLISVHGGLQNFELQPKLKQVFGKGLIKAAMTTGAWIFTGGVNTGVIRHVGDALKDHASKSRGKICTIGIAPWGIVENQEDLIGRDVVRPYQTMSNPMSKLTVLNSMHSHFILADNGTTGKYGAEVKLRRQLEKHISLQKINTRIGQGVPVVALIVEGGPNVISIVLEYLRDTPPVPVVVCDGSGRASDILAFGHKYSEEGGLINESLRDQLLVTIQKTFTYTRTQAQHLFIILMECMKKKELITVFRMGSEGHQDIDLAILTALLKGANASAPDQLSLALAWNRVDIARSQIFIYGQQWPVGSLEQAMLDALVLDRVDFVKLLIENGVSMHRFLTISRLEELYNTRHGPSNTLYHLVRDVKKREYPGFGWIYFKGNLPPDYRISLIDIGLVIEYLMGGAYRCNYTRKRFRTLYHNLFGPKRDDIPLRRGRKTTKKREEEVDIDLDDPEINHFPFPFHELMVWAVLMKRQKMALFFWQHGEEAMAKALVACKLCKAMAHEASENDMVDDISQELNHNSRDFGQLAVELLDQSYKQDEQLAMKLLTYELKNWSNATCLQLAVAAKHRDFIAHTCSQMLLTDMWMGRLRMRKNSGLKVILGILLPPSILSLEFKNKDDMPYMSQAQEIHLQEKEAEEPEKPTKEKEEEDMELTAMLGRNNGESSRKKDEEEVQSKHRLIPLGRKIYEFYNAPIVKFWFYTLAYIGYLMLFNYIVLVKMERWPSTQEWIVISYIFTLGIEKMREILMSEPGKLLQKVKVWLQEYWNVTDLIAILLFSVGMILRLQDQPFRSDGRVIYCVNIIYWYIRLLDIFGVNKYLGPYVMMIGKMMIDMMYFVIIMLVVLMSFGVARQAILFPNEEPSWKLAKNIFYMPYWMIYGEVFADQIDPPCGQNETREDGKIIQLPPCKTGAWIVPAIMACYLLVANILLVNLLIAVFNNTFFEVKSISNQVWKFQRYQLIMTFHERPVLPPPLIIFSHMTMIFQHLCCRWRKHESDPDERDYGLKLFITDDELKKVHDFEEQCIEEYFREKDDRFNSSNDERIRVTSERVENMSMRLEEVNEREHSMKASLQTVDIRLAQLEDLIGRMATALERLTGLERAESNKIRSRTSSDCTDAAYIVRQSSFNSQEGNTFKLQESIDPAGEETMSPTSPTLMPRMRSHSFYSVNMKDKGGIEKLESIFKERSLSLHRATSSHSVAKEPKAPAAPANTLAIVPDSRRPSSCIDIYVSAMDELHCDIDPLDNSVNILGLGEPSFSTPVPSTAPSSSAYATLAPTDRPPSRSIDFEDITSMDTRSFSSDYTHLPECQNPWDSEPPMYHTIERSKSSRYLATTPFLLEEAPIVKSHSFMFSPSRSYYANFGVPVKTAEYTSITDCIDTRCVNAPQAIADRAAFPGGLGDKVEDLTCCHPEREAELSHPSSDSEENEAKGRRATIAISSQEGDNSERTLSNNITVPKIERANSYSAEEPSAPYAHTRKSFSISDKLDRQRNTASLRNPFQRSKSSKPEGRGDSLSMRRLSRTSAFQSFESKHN",
  "test": "Intracellular Ca2+ assay (GCaMP6f) in 96-well plates, HEK293 cells, wild type channel",
  "assay_type": "cell-based",
  "experimental": "Intracellular Ca^2+ measurements were performed using a Flexstation-3 96‐well plate reader with rapid well injection (Molecular Devices) as described earlier ([Hughes et al., 2019]) with some modifications. Briefly Human Embryonic Kidney 293 (HEK293) cells were purchased from American Type Culture Collection (ATCC), Manassas, VA, (catalogue number CRL-1573), RRID:CVCL_0045; cell identity was verified by STR analysis by ATCC. HEK293 cells were cultured in MEM supplemented with 10% FBS and 100 IU/ml penicillin plus 100 µg/ml streptomycin in 5% CO2 at 37°C. Additional cell authentication was not performed, but passage number of the cells was monitored, and cells were used up to passage number 25–30 from purchase, when a new batch of cells was thawed with low passage number; cells were tested for the lack of mycoplasma infection. HEK293 cells were transfected with hTRPM3α2-GFP, or its mutants (200 ng) and GCaMP6 (1 μg) using the Effectene reagent (Qiagen). […] GCaMP6 signal was measured at excitation wavelengths 485 nm and fluorescence emission was detected at 525 nm. Sampling interval was 0.86 s and four parallel reads were performed for each condition. […] For measurements at 37°C the MEM medium used to culture the cells was replaced with the measurement solution preheated to 37°C, and the plate was placed in the plate reader warmed to 37°C using its built-in temperature controller.",
  "data": [
    {"smiles": "CCC1(c2ccccc2)C(=O)NCNC1=O", "note": "[primidone]", "values": [
      {"measurement": "Effect on basal cytoplasmic Ca2+ levels", "setting": "wild type TRPM3, room temperature (21°C)", "result": "no effect"},
      {"measurement": "Effect on basal Ca2+ levels at 37°C", "setting": "wild type channels, 50 μM, 37°C", "result": "reduced basal Ca^2+ levels"}
    ]}
  ]
}
